Source: publication PMC7600788, “Sequence Permutation Generates Peptides with Different Antimicrobial and Antibiofilm Activities” (Pharmaceuticals, 2020)
No end group written: not given here.

What was measured:
S. aureus USA300 LAC [1] = assay type: cell-based, Staphylococcus aureus; conditions: USA300
Summary of the method: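 Broth microdilution with log-phase cultures diluted to OD600~0.001 and two-fold peptide dilutions, incubated overnight at 37 °C and read at 630 nm. MBC taken by plating clear wells at or above MIC. Physiological saline or human serum was present for the whole experiment.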

S. aureus USA300 LAC [2] = assay: Disruption of 24 h established biofilms (XTT); assay type: cell-based, Staphylococcus aureus; conditions: 12.5 µM, highest concentration tested, 24 h treatment
Description: We also compared the effects of the peptides on established biofilms (24 h). […] When cells are alive (in the absence of peptide), the cell-permeant calcein-AM dye could enter the cells and gave green color as a consequence of the removal of acetoxymethyl (AM) esters by intracellular esterase (Figure 7A). When the cells were dead due to membrane damage by the peptide, the red dye ethidium homodimer (non-membrane permeable) could enter the cell and become red by binding to nucleic acids (Figure 7B).
The antibiofilm activity of the peptide against 24 h established biofilms was evaluated as previously described. In short, S. aureus USA300 LAC (10^5 CFU/mL) was made from exponential phase bacteria in TSB media and 180 μL were distributed to each well of the microtiter plate (Corning Costar Cat No. 3595, Amsterdam, The Netherlands). The plates were incubated at 37 °C for 24 h to form a biofilm. Culture treated with water served as a positive control while media without bacterial inoculation served as the negative control. Media were then pipetted out and the attached biofilms were washed with 1× PBS to remove the planktonic bacteria. Each well of the plate was then filled with 20 μL of 10× peptide solution and 180 μL of fresh TSB media and the plates were further incubated at 37 °C for 24 h. Media were then pipetted out and the wells were washed with 1× PBS to remove planktonic cells. The live cells in biofilms were estimated by XTT assay as mentioned above.

K. pneumonia ATCC 13883 = conditions: cited from earlier work
Description: Table 2 Antibacterial activities of the WW peptides against various bacteria. | column: Minimal Inhibitory Concentration (MIC, μM) / KP ^a

RKIWWWWL [WW295]
MIC, +150 mM NaCl (S. aureus USA300 LAC [1]): 3.1 µM
MIC, +10% Human Serum (S. aureus USA300 LAC [1]): 12.5 µM
MIC, TSB (S. aureus USA300 LAC [1]): 3.1 µM
disruption of established biofilms (24 h) (S. aureus USA300 LAC [2]): did not disrupt MRSA biofilms significantly
Minimal Inhibitory Concentration (MIC), KP (K. pneumonia ATCC 13883): 3.1 to 6.2 µM
